Test results taken from US20250288599A1, “PHARMACEUTICAL COMPOSITIONS AND METHODS FOR TREATING OSTEOARTHRITIS” (INSIGNIA PHARMACEUTICALS, LLC, priority 2024, published 2025).

How the values were obtained:
[1] = tested on: PGE2 release from normal human chondrocytes; test: IL-1β-induced PGE2 release from normal human chondrocyte monolayers, 48 h, competitive EIA; format: cell-based
Procedure: Mechanical stress and inflammation are thought to sustain catabolic cycles of extracellular matrix deterioration during osteoarthritis. In particular, PGE2 correlates with increased protease production and discomfort or pain in osteoarthritis.
After 48-hours, PGE2 release was evaluated by competitive EIA, and relative potency was calculated versus dose responses of Dex alone.
After 48 hours, PGE2 release was evaluated by competitive enzyme immunoassay (EIA), and relative potency was calculated versus Dex alone.
(§1) Lac is commonly thought to be simply an end-product of anaerobic glycolysis; however, it may also have immunomodulatory effects and promote protein modifications that alter gene expression. The goal of this experiment was to determine how Lac supplementation affects early-phase, inflammatory, and late-stage redifferentiation in chondrocyte models. To establish how Lac may influence inflammation early in osteoarthritis, monolayers of normal human chondrocytes were exposed to Lac dose responses of up to 100 millimolar, concurrently with 0.5 nanograms per milliliter IL-1β for 48 hours. The release of PGE2 was then quantified using competitive EIA. To investigate how Lac affects transcriptional programs in dedifferentiated osteoarthritic chondrocytes, monolayer cultures and micromass pellets were treated for 14 days with 100 millimolar final concentrations of Lac, with and without 10 nanograms per milliliter transforming growth factor beta 3 (TGF-β3). Total RNA was then isolated, and relative expression of SOX9 or Col2a1 was calculated using qRT-PCR, normalized to GAPDH.

[2] = tested on: Col2a1 expression in dedifferentiated osteoarthritic chondrocytes; test: Col2a1 relative expression in high passage osteoarthritic chondrocyte monolayer model with TGF-β; format: cell-based, human; settings: 14 days in culture with TGF-β; 28 mM Lac, 100 mm LA
Procedure: These compounds were tested in a high passage osteoarthritic chondrocyte monolayer model, alone or in combination with other agents, for both transcriptional regulation of standard markers and IL-1β-induced PGE2 production.

[3] = tested on: Col1a1 expression in human osteoarthritic chondrocytes; test: Col1a1 relative expression in human osteoarthritic chondrocytes (passage 5) cultured 27 days; format: cell-based; settings: 50 micromolar Dec, 0.1 μM Dxp, 100 mM Lac
Procedure: To evaluate the biological ramifications of the SOX9 to RUNX2 regulation mentioned above, delta-delta relative gene expression was assessed against medium controls, with normalization to GAPDH for both Col2a1 and Col1a1 in the samples tested with reference to Example 15. […] Moreover, treatment with 100 mM Lac increased collagen expression (49.88±4.31 and 1.63±0.20 for Col2a1 and Col1a1, respectively; FIGS. 51 and 52).

[4] = tested on: Col2a1 expression in dedifferentiated osteoarthritic chondrocytes; test: Col2a1 relative expression in dedifferentiated osteoarthritic chondrocytes treated 14 days with Lac; format: cell-based, human
Description: as §1, with “GAPDH. […] Lac may also have beneficial effects on osteoarthritic chondrocytes; 100 millimolar final Lac concentrations increased the relative expression of SOX9 and Col2a1 by 8-fold and 1600-fold, respectively, in monolayer cultures. […] Furthermore, adding Lac with TGF-β3 to micromass cultures increased SOX9 and Col2a1 by 9-fold and 88-fold, respectively.” for “GAPDH.”

[5] = tested on: ACAN expression in human osteoarthritic chondrocytes; test: ACAN relative expression in human osteoarthritic chondrocytes (passage 5) cultured 27 days; format: cell-based; settings: 50 micromolar Dec, 0.1 μM Dxp, 100 mM Lac
Description: Delta-delta relative gene expression was employed to determine ACAN regulation in the 27-day samples referenced in Examples 15 and 16. A 3.81±0.77-fold increase in ACAN expression in the cells after 27 days of Lac treatment was observed. […] Without being bound by theory, it is hypothesized that these findings indicate that metabolic management and/or metabolite feedback loops represent promising therapy targets for osteoarthritis. Results associated with Example 17 are depicted in FIG. 53.

[6] = tested on: Col2a1 expression in low passage osteoarthritic chondrocytes; test: Col2a1 relative expression in low passage osteoarthritic chondrocytes; format: cell-based, human; settings: day 28
[7] = tested on: MMP3 expression in normal human dermal fibroblasts (NHDF); test: MMP3 mRNA in NHDF activated with IL-1β, 24 h, qRT-PCR; format: cell-based; settings: IL-1β 0.1 ng/ml, 100 mM Lac or 0.1 mM Dxp, IL-1β alone 3.5±1.7
Procedure: After 24 hours, total mRNA was isolated and delta-delta Cp relative expression was calculated versus untreated medium controls, normalized to the housekeeping gene, GAPDH. Statistical analysis was then conducted via t-test.

CC(O)C(=O)O (stereo not shown) [Lac, lactate]
concentration with statistically significant effect on PGE2 release ([1]; IL-1β 48 h): ≥ 10 millimolar
inhibition of PGE2 release ([1]; Lac 100 millimolar, 0.5 ng/mL IL-1β, 48 h): complete inhibition
increase in Col2a1 compared to controls [2]: 30 fold
Col1a1 delta-delta relative gene expression [3]: 1.63±0.20 fold
increase in Col2a1 ([4]; 100 millimolar Lac with TGF-β3, 14 days, micromass cultures): 88 fold
increase in collagen ([4]; 100 millimolar Lac, 14 days, micromass pellets): 11 fold
increase in relative expression of Col2a1 ([4]; 100 millimolar Lac, 14 days, monolayer cultures): 1600 fold
ACAN delta-delta relative gene expression [5]: 3.81±0.77 fold
relative expression of Col2a1 [6]: elevated Col2a1 relative expression
relative expression of MMP3 [7]: 1.5±0.8
